Laboratory results published in US20220119354A1, “DIAMINO-SUBSTITUTED PYRIDINES AND PYRIMIDINES AS HERBICIDES” (FMC Corporation, priority 2019, published 2022).

Key:
Assay type in all cases: in vivo
[1] = test system: barnyardgrass (Echinochloa crus-galli); assay: Test A preemergence, barnyardgrass; details: 0 to 100 scale, 0 is no effect, 100 is complete control
Method in brief: (§1)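 Visual injury scored against untreated controls about 10 d after treatment, scale 0 = no effect to 100 = complete control. Compounds, formulated with surfactant in a non-phytotoxic solvent, went on as directed soil spray preemergence or onto 2–10 cm, one- to two-leaf plants postemergence; loam–sand soil, greenhouse.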

[2] = test system: kochia (Kochia scoparia); assay: Test A preemergence, kochia; details: 0 to 100 scale, 0 is no effect, 100 is complete control
Method in brief: as §1

[3] = test system: ragweed (common ragweed, Ambrosia elatior); assay: Test A preemergence, ragweed; details: 0 to 100 scale, 0 is no effect, 100 is complete control
Method in brief: as §1

[4] = test system: ryegrass, Italian (Lolium multiflorum); assay: Test A preemergence, Italian ryegrass; details: 0 to 100 scale, 0 is no effect, 100 is complete control
Method in brief: as §1

[5] = test system: foxtail, giant (Setaria faberii); assay: Test A preemergence, giant foxtail; details: 0 to 100 scale, 0 is no effect, 100 is complete control
Method in brief: as §1

[6] = test system: pigweed (Amaranthus retroflexus); assay: Test A preemergence, pigweed; details: 0 to 100 scale, 0 is no effect, 100 is complete control
Method in brief: as §1

[7] = test system: barnyardgrass (Echinochloa crus-galli); assay: Test A postemergence, barnyardgrass; details: 0 to 100 scale
Method in brief: as §1

[8] = test system: kochia (Kochia scoparia); assay: Test A postemergence, kochia; details: 0 to 100 scale
Method in brief: as §1

[9] = test system: ragweed (common ragweed, Ambrosia elatior); assay: Test A postemergence, ragweed; details: 0 to 100 scale
Method in brief: as §1

[10] = test system: ryegrass, Italian (Lolium multiflorum); assay: Test A postemergence, Italian ryegrass; details: 0 to 100 scale
Method in brief: as §1

[11] = test system: foxtail, giant (Setaria faberii); assay: Test A postemergence, giant foxtail; details: 0 to 100 scale
Method in brief: as §1

[12] = test system: pigweed (Amaranthus retroflexus); assay: Test A postemergence, pigweed; details: 0 to 100 scale
Method in brief: as §1

[13] = test system: wheat (Triticum aestivum); assay: Test A postemergence, wheat; details: 0 to 100 scale
Method in brief: as §1

[14] = test system: corn (Zea mays); assay: Test A postemergence, corn; details: 0 to 100 scale
Method in brief: as §1

[15] = test system: blackgrass (Alopecurus myosuroides); assay: Test A postemergence, blackgrass; details: 0 to 100 scale
Method in brief: as §1

[16] = test system: galium (catchweed bedstraw, Galium aparine); assay: Test A postemergence, galium; details: 0 to 100 scale
Method in brief: as §1

[17] = test system: rice (Oryza sativa); assay: Test B flooded paddy test, rice; details: Flood, 250 g ai/ha, applied to paddy water, 2-leaf stage, visual evaluation after 13 to 15 d
Method in brief: (§2)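 Rating: 0 = no effect, 100 = complete control, visual, relative to untreated plants. Conditions: 2-leaf stage, 3 cm flood kept constant, compound put directly into water, 13–15 d greenhouse.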

[18] = test system: sedge, umbrella (small-flower umbrella sedge, Cyperus difformis); assay: Test B flooded paddy test, umbrella sedge; details: Flood, 250 g ai/ha, applied to paddy water, 2-leaf stage, visual evaluation after 13 to 15 d
Method in brief: as §2

[19] = test system: ducksalad (Heteranthera limosa); assay: Test B flooded paddy test, ducksalad; details: Flood, 250 g ai/ha, applied to paddy water, 2-leaf stage, visual evaluation after 13 to 15 d
Method in brief: as §2

[20] = test system: barnyardgrass (Echinochloa crus-galli); assay: Test B flooded paddy test, barnyardgrass; details: Flood, 250 g ai/ha, applied to paddy water, 2-leaf stage, visual evaluation after 13 to 15 d
Method in brief: as §2

[21] = 125 g ai/ha, 0 no effect, 100 complete control
[22] = 500 g ai/ha, 0 is no effect, 100 is complete control

C[C@H](Nc1ncc(C(F)(F)F)c(N)n1)c1cc2ccc(F)cc2s1 [Compound 47]
Barnyardgrass plant response rating ([1]; 125 g ai/ha): 0
Barnyardgrass plant response rating ([1]; 500 g ai/ha): 0
Kochia plant response rating ([2]; 125 g ai/ha): 0
Kochia plant response rating ([2]; 500 g ai/ha): 0
Ragweed plant response rating ([3]; 125 g ai/ha): 0
Ragweed plant response rating ([3]; 500 g ai/ha): 0
Ryegrass, Italian plant response rating ([4]; 125 g ai/ha): 0
Ryegrass, Italian plant response rating ([4]; 500 g ai/ha): 0
Foxtail, Giant plant response rating ([5]; 125 g ai/ha): 0
Foxtail, Giant plant response rating ([5]; 500 g ai/ha): 0
Pigweed plant response rating ([6]; 125 g ai/ha): 0
Pigweed plant response rating ([6]; 500 g ai/ha): 30
Plant response rating, Barnyardgrass [7, 21]: 0
Barnyardgrass plant response rating [7, 22]: 0
Plant response rating, Kochia [8, 21]: 0
Kochia plant response rating [8, 22]: 60
Plant response rating, Ragweed [9, 21]: 0
Ragweed plant response rating [9, 22]: 0
Plant response rating, Ryegrass, Italian [10, 21]: 0
Ryegrass, Italian plant response rating [10, 22]: 0
Plant response rating, Foxtail, Giant [11, 21]: 0
Foxtail, Giant plant response rating [11, 22]: 0
Plant response rating, Pigweed [12, 21]: 20
Pigweed plant response rating [12, 22]: 80
Plant response rating, Wheat [13, 21]: 0
Wheat plant response rating [13, 22]: 0
Plant response rating, Corn [14, 21]: 0
Corn plant response rating [14, 22]: 0
Plant response rating, Blackgrass [15, 21]: 0
Blackgrass plant response rating [15, 22]: 30
Plant response rating, Galium [16, 21]: 0
Galium plant response rating [16, 22]: 0
Plant response rating, Rice (0 to 100 scale, 0 is no effect, 100 is complete control) [17]: 0
Plant response rating, Sedge, Umbrella (0 to 100 scale, 0 is no effect, 100 is complete control) [18]: 0
Plant response rating, Ducksalad (0 to 100 scale, 0 is no effect, 100 is complete control) [19]: 0
Plant response rating, Barnyardgrass (0 to 100 scale, 0 is no effect, 100 is complete control) [20]: 0
